From ChEMBL document CHEMBL1134716, “Synthesis and evaluation of GGPP geometric isomers: divergent substrate specificities of FTase and GGTase I” (Bioorg Med Chem Lett, 2001)
pIC50: −log10 of the molar value.

Biological target: Geranylgeranyl transferase type I (Homo sapiens, UniProt P49354+P53609)
Assay: Inhibition of recombinant mammalian Geranylgeranyl transferase type I expressed in baculovirus

Row | SMILES | pIC50
1 | CC(C)=CCC/C(C)=C/CC/C(C)=C/CC/C(C)=C\COP(=O)(O)OP(=O)(O)O | 7.00
2 | CC(C)=CCC/C(C)=C/CC/C(C)=C\CC/C(C)=C/COP(=O)(O)OP(=O)(O)O | 6.47
